Results as given in PubChem BioAssay AID743417 (Broad Institute, 2014).
Results filed as inconclusive are left out.

Test system: Clone20 osteoblast Shn3 3'UTR firefly luciferase, 24 h
Test: Schnurri-3 3'UTR-luciferase signal suppressors – cell-based, Clone20 osteoblasts, luminescence, dry powder, set 2, dose response (AID 743417)

Compound	AC50
Cc1ccccc1OCC(O)Cn1c(=N)n(Cc2ccccc2)c2ccccc21 (configuration not stated)	2250 nM
COc1cc(NC(=O)Cn2ncc(Cl)c(Cl)c2=O)c(C)cc1[N+](=O)[O-]	3440 nM
CCOC(=O)N1CCN(C(=O)c2ccc3c(c2)N(Cc2ccc(C)cc2)CCS3)CC1	6000 nM
Cc1cc([N+](=O)[O-])ccc1-c1ccc(C2Nc3ccccc3C(=O)N2O)o1 (configuration not stated)	3320 nM
CCOC(=O)c1cnc(-n2nc(C)cc2C)nc1NNc1nc(-c2ccccc2)cc(-c2ccccc2)n1	3840 nM
Cc1ccccc1NC(=O)CSc1nc2ccccc2c(=O)n1C	7640 nM
CC(=O)OCCCNc1cc(Sc2ccc(C)cc2)c2nonc2c1[N+](=O)[O-]	1100 nM
CC(Nc1ncnc2ccccc12)c1ccccc1 (configuration not stated)	355 nM
C[C@@H]1C[C@@H]([C@H](O)CC2CC(=O)NC(=O)C2)C(=O)[C@@H](C)C1	345 nM
Cc1ccc(NC(=O)CSc2ccc3c(c2)OCCO3)c(O)c1	343 nM
CC(=O)Nc1ccc(NC(=O)c2nc(S(=O)(=O)Cc3ccccc3)ncc2Cl)cc1	773 nM
CCCOc1ccccc1C1CC(=O)Nc2cc3c(cc21)OCO3 (configuration not stated)	5720 nM
Fc1ccc(C(OCCN2CCN(CCCc3ccccc3)CC2)c2ccc(F)cc2)cc1	6170 nM
Cc1cc2c(cc(C(=O)OC(C(=O)NC3CCCCC3)C(C)C)n2C)o1 (configuration not stated)	5900 nM
Cc1nn(Cc2ccc(Cl)cc2)c(C)c1NC(=O)c1cc(C(C)C)on1	6200 nM
COC(=O)C12OCC34C(CC5C(C)=C(O)C(=O)CC5(C)C3C(O)C1O)OC(=O)C(OC(=O)/C=C(\C)C(C)C)C24 (configuration not stated)	< 260 nM
CCCC(=O)NC(c1ccc(Cl)cc1)c1ccc2cccnc2c1O (configuration not stated)	937 nM
C=CS(=O)(=O)c1sc(Cl)c(N2CCOCC2)c1[N+](=O)[O-]	1310 nM
CCOC(=O)C1CCN(C(=O)c2ccc(OCC(=O)Nc3cccc(C(F)(F)F)c3)c(OC)c2)CC1	1750 nM
Cc1ccc(NC(=O)Cc2nn(C)c(=O)c3ccccc23)cc1F	730 nM
Cc1ccc(C(C)C)cc1NC(=O)Nc1ccc([N+](=O)[O-])cc1	7190 nM

Compound	AC50
COc1ccc(NC(=O)C2Cc3c(-c4cccc(C(C)=O)c4)ccnc3O2)cc1OC (configuration not stated)	799 nM
Cc1ccc(NC(=O)C2CCC(C(C)(C)C)CC2)cc1S(=O)(=O)N1CCOCC1 (configuration not stated)	12100 nM
COc1ccc(S(=O)(=O)N(C)C)cc1NC(=O)C1CCN(c2ncnc3sc(C)c(C)c23)CC1	9210 nM
CCOC(=O)c1c2c(n(-c3ccc(OC)cc3)c1C)C(=O)C(=O)c1ccccc1-2	3150 nM
CCc1c(C)nc2ncnn2c1N1CCN(S(=O)(=O)c2ccc(OC)cc2)CC1	1160 nM
CCC(=O)c1cn(CC(=O)Nc2ccccc2Cl)c2ccccc12	< 260 nM
CCCCn1c(CN2CCN(c3ccccc3)CC2)nc2c1c(=O)n(C)c(=O)n2C	2050 nM
Cc1ccc(C(=O)N2c3ccccc3N(Cc3ccccc3)C(=O)C2(C)C)cc1	6920 nM
N#CC(c1ccc(Cl)cc1)c1ccc2c(C(F)(F)F)cc(C(F)(F)F)nc2n1 (configuration not stated)	487 nM
CCOc1ccc(N2C(=O)CC(Sc3nnnn3-c3ccccc3)C2=O)cc1 (configuration not stated)	11500 nM
O=C(CSc1c2c(nc3ccc(Cl)cc13)CCCC2)N1CCN(C(=O)c2ccco2)CC1	3750 nM
O=C(CN1CCCC1c1cccs1)Nc1cc(S(=O)(=O)N2CCCCC2)ccc1Cl (configuration not stated)	14400 nM
Cc1cccc(CS(=O)(=O)c2ncc(Cl)c(C(=O)Nc3nnc(C(C)C)s3)n2)c1	1620 nM
COc1ccc(CNCCc2c(C)[nH]c3ccc(OC(F)(F)F)cc23)c(OC)c1	963 nM
COc1ccccc1Cc1c(-c2ccco2)nc2c(C)cc(Br)cn12	1900 nM
CCN(CC)S(=O)(=O)c1cc(NC(=O)CNc2cccc(S(=O)(=O)N3CCCC3)c2)ccc1C	648 nM
CCCCn1c(-c2nonc2NC(=O)c2ccccc2Cl)nc2ccccc21	1390 nM
O=C(CSc1nnc(-c2cccnc2)s1)Nc1ccnc2ccccc12	661 nM
CCCC(=O)NC(c1ccc(OC)cc1)c1ccc2cccnc2c1O (configuration not stated)	1180 nM
CCC1CCCCN1S(=O)(=O)c1ccc(NC(=O)c2nc(S(C)(=O)=O)ncc2Cl)cc1 (configuration not stated)	341 nM
CC(=O)c1cn(Cc2ccccc2F)c2ccccc12	2960 nM
